Test results: PubChem BioAssay (NCI)
“And” between values parts separate entries of the source, which are not always exact repeats. Equal values may be shown once.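 Protocol summary: plate cells (96-well), add compound at 5 concentrations, incubate 48 h, interpolate endpoints linearly. GI50 marks 50% less growth. Definition used: TGI = concentration required for complete inhibition of growth.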

Tests used:
Test in all cases: DTP human tumour cell line panel, 48 h
A498 renal = tested on: A498 renal
EKVX NSCLC = tested on: EKVX NSCLC
HS 578T breast = tested on: HS 578T breast
SF-539 CNS = tested on: SF-539 CNS
SK-MEL-28 melanoma = tested on: SK-MEL-28 melanoma
SK-MEL-5 melanoma = tested on: SK-MEL-5 melanoma
SNB-75 CNS = tested on: SNB-75 CNS
T-47D breast = tested on: T-47D breast
TK-10 renal = tested on: TK-10 renal
U251 CNS = tested on: U251 CNS

CC(CCC/C=C/CCCN(C)C(=N)N)CC(C)C1OC(=O)C(C)C(O)/C=C/C(C)C(O)C(C)C(O)C(C)C(O)CCCC(O)CC2(O)OC(CC(OC(=O)CC(=O)O)CC(O)CC(O)C(C)C(O)/C=C/C=C/C1C)CC(O)C2O (centres undefined)
GI50 (A498 renal): 2.44 µM and 10.6 µg/mL | TGI (A498 renal): 7.16 µM and 21.3 µg/mL | GI50 (EKVX NSCLC): 3.41 µM and 6.84 µg/mL | TGI (EKVX NSCLC): 12.6 µM and 16.8 µg/mL | GI50 (HS 578T breast): 2.56 µM and 2.5 µg/mL | TGI (HS 578T breast): 7.84 µM and 12.9 µg/mL | GI50 (SF-539 CNS): 1.73 µM and 2.67 µg/mL | TGI (SF-539 CNS): 3.64 µM and 12.5 µg/mL | GI50 (SK-MEL-28 melanoma): 2.04 µM and 2.59 µg/mL | TGI (SK-MEL-28 melanoma): 4.05 µM and 8.56 µg/mL | GI50 (SK-MEL-5 melanoma): 1.75 µM and 1.48 µg/mL | TGI (SK-MEL-5 melanoma): 3.18 µM and 3.33 µg/mL | GI50 (SNB-75 CNS): 2.05 µM and 1.34 µg/mL | TGI (SNB-75 CNS): 4.94 µM and 7.44 µg/mL | GI50 (T-47D breast): 1.81 µM and 2.63 µg/mL | TGI (T-47D breast): 4.44 µM and 11.9 µg/mL | GI50 (TK-10 renal): 1.98 µM and 10.3 µg/mL | TGI (TK-10 renal): 4.17 µM and 21.4 µg/mL | GI50 (U251 CNS): 3.37 µM and 3.3 µg/mL | TGI (U251 CNS): 11.6 µM and 14.9 µg/mL

COc1ccc(-c2nccn2-c2cc(OC)c(OC)c(OC)c2)cc1
GI50 (A498 renal): 0.909 µM | GI50 (EKVX NSCLC): > 54.5 µM | TGI (EKVX NSCLC): > 100 µM | GI50 (HS 578T breast): 8.9 µM | TGI (HS 578T breast): > 77.6 µM | GI50 (SF-539 CNS): 5.78 µM | TGI (SF-539 CNS): 24.4 µM | GI50 (SK-MEL-28 melanoma): 20.6 µM | TGI (SK-MEL-28 melanoma): > 100 µM | GI50 (SK-MEL-5 melanoma): 0.758 µM | TGI (SK-MEL-5 melanoma): > 69.5 µM | GI50 (SNB-75 CNS): 1.51 µM | TGI (SNB-75 CNS): > 76.3 µM | GI50 (T-47D breast): 9.55 µM | TGI (T-47D breast): > 100 µM | GI50 (TK-10 renal): 10.7 µM | TGI (TK-10 renal): > 100 µM | GI50 (U251 CNS): 3.85 µM | TGI (U251 CNS): > 100 µM

NC(=O)NOCC1NC(=O)NC1=O (centres undefined)
TGI (A498 renal): > 100 µM | TGI (EKVX NSCLC): > 100 µM | TGI (HS 578T breast): > 100 µM | TGI (SF-539 CNS): > 100 µM | TGI (SK-MEL-28 melanoma): > 100 µM | TGI (SK-MEL-5 melanoma): > 100 µM | TGI (SNB-75 CNS): > 100 µM | TGI (T-47D breast): > 100 µM | TGI (TK-10 renal): > 100 µM | TGI (U251 CNS): > 100 µM

Cn1c(N)cc(=O)nc1N
TGI (A498 renal): > 100 µM | TGI (EKVX NSCLC): > 100 µM | TGI (HS 578T breast): > 100 µM | TGI (SF-539 CNS): > 100 µM | TGI (SK-MEL-28 melanoma): > 100 µM | TGI (SK-MEL-5 melanoma): > 100 µM | TGI (SNB-75 CNS): > 100 µM | TGI (T-47D breast): > 100 µM | TGI (TK-10 renal): > 100 µM | TGI (U251 CNS): > 100 µM

C/C=C\C(C)=C/C(C)C(=O)CC(O)CC1CC(=O)NC(=O)C1 (centres undefined)
TGI (A498 renal): > 100 µM | TGI (EKVX NSCLC): > 100 µM | TGI (HS 578T breast): 62.5 µM | TGI (SF-539 CNS): > 100 µM | TGI (SK-MEL-28 melanoma): > 100 µM | TGI (SK-MEL-5 melanoma): > 100 µM | TGI (SNB-75 CNS): 68.2 µM | TGI (T-47D breast): > 100 µM | TGI (TK-10 renal): > 100 µM | TGI (U251 CNS): > 100 µM

O=C(NC(c1ccccc1)C(O)C(=O)OCc1ccc2c(c1)C(=O)c1ccccc1C2=O)c1ccccc1 (centres undefined)
TGI (A498 renal): 15.7 µM | TGI (EKVX NSCLC): > 83.1 µM | TGI (HS 578T breast): > 100 µM | TGI (SF-539 CNS): 20.6 µM | TGI (SK-MEL-28 melanoma): > 95.6 µM | TGI (SK-MEL-5 melanoma): 40.3 µM | TGI (SNB-75 CNS): 24.6 µM | TGI (T-47D breast): 34.9 µM | TGI (TK-10 renal): 53.2 µM | TGI (U251 CNS): 18.3 µM

COc1ccc(N2CCN(CC(=O)N3CCN(c4nnc(-c5ccc(Cl)cc5)c(-c5ccc(Cl)cc5)n4)CC3)CC2)cc1
GI50 (A498 renal): 13.4 µM | TGI (A498 renal): > 100 µM | GI50 (EKVX NSCLC): > 100 µM | TGI (EKVX NSCLC): > 100 µM | GI50 (HS 578T breast): > 100 µM | TGI (HS 578T breast): > 100 µM | GI50 (SF-539 CNS): 3.66 µM | TGI (SF-539 CNS): 17.3 µM | GI50 (SK-MEL-28 melanoma): 96.8 µM | TGI (SK-MEL-28 melanoma): > 100 µM | GI50 (SK-MEL-5 melanoma): 5.52 µM | TGI (SK-MEL-5 melanoma): 52.4 µM | GI50 (SNB-75 CNS): 13.2 µM | TGI (SNB-75 CNS): 55.4 µM | GI50 (T-47D breast): 3.64 µM | TGI (T-47D breast): > 100 µM | GI50 (TK-10 renal): 9.18 µM | TGI (TK-10 renal): > 100 µM | GI50 (U251 CNS): 10.6 µM | TGI (U251 CNS): > 100 µM
